Assay results reported in PMC5133449, “Peripheral self-reactivity regulates antigen-specific CD8 T-cell responses and cell division under physiological conditions” (Open Biology, 2016).
Entries after “also recorded” stand apart in the source; their conditions may differ.

Assays:
[1] = test system: CD8 T cells from Rop7-I mice; experiment: Peptide-loaded H-2 L^d tetramer staining; assay type: cell-based, mouse; details: caged tetramer approach, H-2 L^d tetramers loaded with peptide, splenocytes, flow cytometry
Method: (§1) Figure 2. Binding of Rop7-I, -II and -III to Rop7 peptide variants. (a) Splenocytes from WT or Rop7-I, -II and -III heterozygous mice were stained for CD8 and with H-2 L^d tetramers loaded with the indicated peptides. Histograms show H-2 L^d-Rop7 variants staining on CD8 T cells from WT or Rop7 mice. (b) TCRs from Rop7-I, -II and -III T cells were recombinantly expressed and refolded. Binding affinities for IPAAAGRFF-, IPAFAGRFF- and IPANAGRFF-loaded H-2 L^d were measured with a BIAcore 3000 and analysed using an equilibrium model. The raw data (black lines), fits (red lines) and calculated dissociation constant are shown in each panel.
(§2) Purified anti-CD3 (clone 17A2) and anti-CD28 (clone 37.51) antibodies, fluorescently labelled Granzyme B (clone 16G6), CD3ɛ (clone 145-2C11), CD4 (clone GK1.5), CD8 (clone 53-6.7), CD45.1 (clone A20) specific antibodies were purchased from eBioscience. Biotinylated anti-CD4 (clone GK1.5), anti-CD19 (clone 1D3), fluorescently labelled CD25 (clone 7D4), CD44 (clone 1M7), CD69 (clone H1.2F3), TNFα (clone MP6-XT22) and actin (clone ab-5) specific antibodies were purchased from BD Biosciences. Fluorescently labelled CD5 (clone 53-7.3), CD28 (clone E18), CD62 L (clone mel-14), Ki-67 (clone 16A8) specific antibodies and Zombie Aqua (cat. no. 423101) were purchased from Biolegend. Fluorescently labelled anti-IFNγclone 9004) was purchased from Sigma. Anti-phospho-tyrosine residue (clone 4G10) was purchased from Millipore. Anti-phopho-ERK (Thr202/Tyr204) (D13.14.4E, cat. no. 4370) and anti-phospho-S6 (Ser235/236) (D57.2.2E, cat. no. 4858) were purchased from Cell Signalling Technology. Horseradish peroxidase-conjugated anti-mouse antibody was purchased from GE Healthcare (cat. no. NXA931). Horseradish peroxidase-conjugated goat anti-rabbit antibody was purchased from Southern Biotech (cat. no. 4041-05). CD8 T cells isolation kit (130-095-236) and anti-biotin beads (130-090-485) were purchased from Miltenyi and used according to the manufacturer's instructions. ELISA kits for the detection of mouse IL-2 (cat. no. 431001), IFNγ (cat. no. 430801) and TNFα (cat. no. 430901) were purchased from BioLegend. ELISA for mouse IgM (cat. no. 88-50470-22) and IgG (cat. no. 88-50400-22) were purchased from Ebioscience. Recombinant mouse GM-CSF (cat. no. 315-03), IL-2 (212-12) and IL-4 (cat. no. 214-14) were purchased from Peprotech. Carboxyfluorescein succinimidyl ester (CFSE) was purchased from Sigma (cat. no. 21888). Protease inhibitor cocktail was purchased from Roche (cat. no. 11836153001). H-2 L^d tetramers were produced and used as described elsewhere or obtained from the NIH tetramer facility. All peptides were produced by the MIT biopolymer facility through standard solid-phase peptide synthesis or purchased from Pepceuticals, UK.

[2] = test system: CD8 T cells from Rop7-II mice; experiment: Peptide-loaded H-2 L^d tetramer staining; assay type: cell-based, mouse; details: caged tetramer approach, H-2 L^d tetramers loaded with peptide, splenocytes, flow cytometry
Method: as §1, §2

[3] = test system: CD8 T cells from Rop7-III mice; experiment: Peptide-loaded H-2 L^d tetramer staining; assay type: cell-based, mouse; details: caged tetramer approach, H-2 L^d tetramers loaded with peptide, splenocytes, flow cytometry
Method: as §1, §2

[4] = test system: Rop7-I CD8 T cells; experiment: T-cell proliferation (CFSE dilution) with peptide-loaded BMDC; assay type: cell-based, mouse; details: 1 or 0.01 µg/ml, 3 days
Excerpt: (§3) Figure 4. Rop7 CD8 T cells proliferation and cytokine secretion upon Rop7 peptide variant stimulation. Sorted CD8^+ tetramer^+ T cells from pooled lymph nodes and spleen of Rop7-I, -II or -III heterozygous mice were labelled with CFSE and stimulated with BMDC loaded with Rop7 peptide variants at indicated concentrations. (a) Histograms show CFSE dilution on sorted CD8 T cells from Rop7-I, -II or -III mice stimulated with IPAAAGRFF peptide-loaded BMDC after 3 days of stimulation. (b) IL-2, TNFα and IFNγ concentration measured in culture supernatant after 3 days of stimulation. Mean of three technical replicates (T-cell stimulation). Error bars: standard deviation (n = 3). Representative of three independent experiments. (c) Bar histograms show the percentage of living cells (Zombie Aqua negative) after 3 days of stimulation with IPAAAGRFF-loaded BMDC. Mean of three technical replicates (T-cell stimulation). Error bars: standard deviation (n = 3). Representative of three independent experiments. (d) Histograms show CFSE dilution on sorted CD8 T cells from Rop7-I or -II heterozygous mice stimulated with IPANAGRFF peptide-loaded BMDC after 3 days of stimulation. (e) IL-2, TNFα and IFNγ concentration measured in culture supernatant after 3 days of stimulation. Mean of three technical replicates (T-cell stimulation). Error bars: standard deviation (n = 3). Representative of three independent experiments. (f) Bar histograms show the percentage of living cells (Zombie Aqua negative) after 3 days of stimulation with IPANAGRFF-loaded BMDC. *p < 0.05, **p < 0.01, ***p < 0.001 (Student's t-test).
(§4) Anti-CD3/28: plate-bound anti-CD3 (clone 17A2) and anti-CD28 (clone 37.51) at indicated concentrations in flat bottom 96-well plates in the presence of 10 ng ml^–1 recombinant mouse IL-2 when specified. BMDC: dendritic cells differentiated from bone marrow progenitors for 5–7 days in GM-CSF and IL-4 containing medium loaded with Rop7 peptide (final concentration 1 or 0.01 µg ml^−1). When indicated, 10–20 × 10^6 cells per millilitre were labelled in PBS 2.5 µM CFSE for 2 min at room temperature.

[5] = test system: Rop7-II CD8 T cells; experiment: as above; assay type: cell-based, mouse; details: 1 or 0.01 µg/ml, 3 days
Excerpt: as §3, §4

[6] = test system: Rop7-III CD8 T cells; experiment: as above; assay type: cell-based, mouse; details: 1 or 0.01 µg/ml, 3 days
Excerpt: as §3, §4

[7] = test system: Rop7-II CD8 T cells; experiment: Cytokine secretion with peptide-loaded BMDC; assay type: cell-based, mouse; details: 1 or 0.01 µg/ml, supernatant after 3 days, ELISA or multiplex, n = 3 technical replicates
Excerpt: as §3
(§5) Cytokine concentrations were measured by ELISA according to the manufacturer's instructions or by multiplex assay (Eve Technologies, Calgary, Alberta, Canada).

[8] = test system: Rop7-III CD8 T cells; experiment: Cytokine secretion with peptide-loaded BMDC; assay type: cell-based, mouse; details: 1 or 0.01 µg/ml, supernatant after 3 days, ELISA or multiplex, n = 3 technical replicates
Excerpt: as §3, §5

[9] = test system: Rop7-II CD8 T cells; experiment: T-cell viability (Zombie Aqua) with peptide-loaded BMDC; assay type: cell-based, mouse; details: 3 days
Excerpt: as §3, with “Representative of three independent experiments. (f) Bar histograms show the percentage of living cells (Zombie Aqua negative) after 3 days of stimulation with IPANAGRFF-loaded BMDC. *p < 0.05, **p < 0.01, ***p < 0.001 (Student's t-test).” left out

[10] = test system: Rop7 CD8 T cells; details: BMDC loaded with Rop7 peptide 1 µg/ml, 72 h, then peptide-loaded target splenocytes 16–20 h
Method: A measure of 1–2 × 10^5 sorted CD4^+ or CD8^+ tetramers^+ cells from pooled spleen and lymph nodes of Rop7-I, -II or -III mice were stimulated in complete RPMI in 96-well round bottom plates together with 0.5 × 10^5 Rop7 peptide-loaded BMDC (final concentration 1 µg ml^−1). After 72 h, cells were harvested and incubated with 10^5 total cells of a 1 to 1 mixture of CFSE-labelled, Rop7 peptide-loaded CD45.1 BALB/c splenocytes (final concentration 1 µg ml^−1) and control, CFSE-labelled, DMSO-treated CD45.2 BALB/c splenocytes in 96-well round bottom plates. After 16–20 h the ratio of living (propidium iodide negative) CD45.1 versus CD45.2 cells was determined by flow cytometry.

[11] = target: Rop7-III TCR; experiment: SPR affinity of H-2 L^d-peptide complexes for immobilised recombinant Rop7-III TCR (BIAcore 3000); assay type: binding, mouse; details: peptide loaded in H-2 L^d as analyte, 1 to 200 µM, 25°C, biotinylated TCR on streptavidin CM5 chip, equilibrium model, at least duplicates; read-out: dissociation constant Kd
Method: as §1
For the Rop7-I, -II and -III TCRs, the α and β chains were cloned individually in the bacterial expression vector pET28a. Residues threonine 46 of the α chain's and serine 57 of the β chain's constant regions were mutated to cysteine to enable non-native disulfide bridge formation within the heterodimer complex. A biotinylation sequence was introduced at the C terminus of the β chain. The chains were separately expressed in Escherichia coli. BL21-DE3 (pLysS) and obtained as inclusion bodies and dissolved in 8 M urea, 25 mM MES, 1 mM EDTA, 1 mM DTT at pH 6.0. […] The final response was calculated after subtracting the control cell response. […] Equilibrium Kd values were calculated by nonlinear curve fitting of background-subtracted data using PRISM software.

Sequence	tetramer binding [1]	tetramer binding [2]	tetramer binding [3]	proliferation [4]	proliferation [5]	proliferation [6]	IL-2, TNFα and IFNγ production [7]	IL-2, TNFα and IFNγ production [8]	cell death / living cells [9]	cytotoxicity [10]	Kd [11] [µM]
IPAAAGRFF	bound tetramers loaded with the nominal antigen (IPAAAGRFF), with little quantitative variation	slightly less avid than binding to Rop7-I or -III	bound tetramers loaded with the nominal antigen (IPAAAGRFF), with little quantitative variation	able to proliferate upon antigenic stimulation in a dose-dependent manner	able to proliferate upon antigenic stimulation in a dose-dependent manner	able to proliferate upon antigenic stimulation in a dose-dependent manner	produced overall less IL-2, TNFα and IFNγ; also recorded: secreted significantly fewer cytokines compared with Rop7-I and -III CD8 T cells	secreted increased amounts of IL-2 and IFNγ but not TNFα when compared with Rop7-I; also recorded: produced significantly more IL-2 and IFNγ, but not TNFα, compared with Rop7-I CD8 T cells	significantly increased tendency to cell death at a lower degree of stimulation; also recorded: an increased proportion of cells died as the strength of stimulus decreased	all Rop7 CD8 T cells were cytotoxic, albeit with subtle but notable differences	–
IPAFAGRFF	only Rop7-II T cells bound	only Rop7-II T cells bound	only Rop7-II T cells bound	–	–	–	–	–	–	–	> 200
IPANAGRFF	Rop7-I and -II, but not Rop7-III T cells bound	Rop7-I and -II, but not Rop7-III T cells bound	not Rop7-III T cells bound	able to proliferate upon stimulation	able to proliferate upon stimulation	–	produced significantly fewer cytokines; also recorded: equally poor ability to secrete cytokines	–	more prone to cell death at both peptide concentrations; also recorded: enhanced cell death compared with Rop7-I CD8 T cells	–	> 200
